Experimental data as given in ChEMBL document CHEMBL3763138, “Synthesis and bioactivity of novel triazole incorporated benzothiazinone derivatives as antitubercular and antioxidant agent” (Bioorg Med Chem Lett, 2016).
Converted amounts (≈) assume the structure as drawn.

Experiments:
Conditions in all cases: ATCC 35743, 10 min
[1] = tested on: Mycobacterium tuberculosis variant bovis BCG; test: Antitubercular activity against Mycobacterium bovis BCG ATCC 35743 at 30 ug/ml after 10 mins by NR assay; format: functional
[2] = tested on: Mycobacterium tuberculosis variant bovis BCG; test: Antitubercular activity against Mycobacterium bovis BCG ATCC 35743 at 10 ug/ml after 10 mins by NR assay; format: functional
[3] = tested on: Mycobacterium tuberculosis variant bovis BCG; test: Antitubercular activity against Mycobacterium bovis BCG ATCC 35743 at 3 ug/ml after 10 mins by NR assay; format: functional
[4] = tested on: Mycobacterium tuberculosis variant bovis BCG; test: Antitubercular activity against Mycobacterium bovis BCG ATCC 35743 after 10 mins by NR assay; format: functional, organism-based

| Compound | inhibition at 30 µg/mL [1] [%] | inhibition at 10 µg/mL [2] [%] | inhibition at 3 µg/mL [3] [%] | IC50 [4] [µg/mL] | MIC [4] [µg/mL] |
| --- | --- | --- | --- | --- | --- |
| O=C1CSc2ccccc2N1Cc1cn(-c2cccc([N+](=O)[O-])c2)nn1 | 26.6 | 31.3 | 39.3 | > 30 | > 30 |
| O=C1CSc2ccccc2N1Cc1cn(Cc2cccc([N+](=O)[O-])c2)nn1 | 88.5 | 62.2 | 36.1 | 6.89 (≈ 18.1 µM) | > 30 |
| O=C1CSc2ccccc2N1Cc1cn(Cc2ccc([N+](=O)[O-])cc2)nn1 | 91.1 | 59.2 | 28.3 | 7.89 (≈ 20.7 µM) | 29.4 (≈ 77 µM) |
| O=C1CSc2ccccc2N1Cc1cn(Cc2ccc(F)cc2)nn1 | 95.3 | 52.9 | 40.6 | 8.25 (≈ 23.3 µM) | 27.5 (≈ 77.6 µM) |
| O=C1CSc2ccccc2N1Cc1cn(Cc2ccc(Cl)cc2)nn1 | 58.1 | 55.2 | 66.1 | 8.55 (≈ 23.1 µM) | > 30 |
| O=C1CSc2ccccc2N1Cc1cn(-c2ccc([N+](=O)[O-])cc2)nn1 | 33.1 | 30.7 | 15.9 | > 30 | > 30 |
| O=C1CSc2ccccc2N1Cc1cn(Cc2ccc(Br)cc2)nn1 | 43.9 | 35.3 | 58.8 | > 30 | > 30 |
| O=C1CSc2ccccc2N1Cc1cn(Cc2ccccc2)nn1 | 74.3 | 26.8 | 1.1 | 19.8 (≈ 58.7 µM) | > 30 |
| O=C1CSc2ccccc2N1Cc1cn(Cc2cccc(Cl)c2)nn1 | 95.5 | 16.4 | 3.3 | 18.6 (≈ 50.1 µM) | 28.4 (≈ 76.7 µM) |
| O=C1CSc2ccccc2N1Cc1cn(Cc2ccccc2Cl)nn1 | 58 | 80.2 | 32 | > 30 | > 30 |
| NNC(=O)c1ccncc1 [ISONIAZID] | – | – | – | 0.0023 (≈ 0.0168 µM) | 0.045 (≈ 0.328 µM) |
| CO[C@H]1/C=C/O[C@@]2(C)Oc3c(C)c(O)c4c(O)c(c(/C=N/N5CCN(C)CC5)c(O)c4c3C2=O)NC(=O)/C(C)=C\C=C\[C@H](C)[C@H](O)[C@@H](C)[C@@H](O)[C@@H](C)[C@H](OC(C)=O)[C@@H]1C [RIFAMPIN] | – | – | – | 0.0016 (≈ 0.00194 µM) | 0.041 (≈ 0.0498 µM) |
